Assay results reported in patent US10738062B2, “Chromane-substituted tetracyclic compounds and uses thereof for the treatment of viral diseases” (Merck Sharp & Dohme Corp., priority 2016, dated 2020).
Read-outs that look alike come from different tables or passages of the source.

Assays:
Set-up in all cases: species or system Hepatitis C virus
[1] = tested on: HCV replicon 1A Y93H; test: Cell-based HCV replicon assay (Replicon Assay A), replicon 1AY93H; details: replicon RNA by real time PCR, day 3
Procedure, shortened: (§1)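 Replicon cells were seeded at 2000/well with compound, 10 serial dilutions starting at 333.3 nM to 1.667 nM, in 0.5% DMSO and 5% FBS, then harvested on day 3. Replicon RNA was measured by multiplex TaqMan RT-PCR with cyclophilin as endogenous control. EC50 is the concentration raising Ct by 1 over projected baseline.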

[2] = tested on: HCV replicon 1B; test: Cell-based HCV replicon assay (Replicon Assay B), replicon 1B; details: replicon RNA by real-time PCR, 3 days
Description: In an alternate assay (“Replicon Assay B”), 1000 cells were seeded per well in a 384-well collagen coated black plate from Greiner bio-one (Cat #781946) in 5% FBS. Inhibitors of this invention were added at 24 h post-seeding, and the plates were incubated for 3 days. Cells were subsequently lysed with Qiagen lysis buffer (Cat #1062731) to extract the RNA. HCV replicon RNA level was measured by real-time PCR using the RNA-to-CT kit from Applied Biosystem (Cat #4392656) and genotype-specific primers and probes. The amplicon was located within NS5B. […] (SEQ. ID NO. 2); the probe sequence was FAM-labeled […] (SEQ. ID NO. 3).
The real-time RT-PCR reactions were run on ABI PRISM 7900HT or Viia7 Sequence Detection System using the following program: 48° C. for 30 minutes, 95° C. for 10 minutes, 40 cycles of 95° C. for 15 sec, 60° C. for 1 minutes.
EC50 data for replicons 1A, 1AY93H and 2B were obtained using Replicon Assay A and EC50 data for replicon 1B was obtained using Replicon Assay B.

[3] = tested on: HCV replicon 2B; test: Cell-based HCV replicon assay (Replicon Assay A), replicon 2B; details: read-out: EC50 replicon 2B; Replicon Assay A; replicon RNA by real time PCR, day 3
Procedure, shortened: as §1

[4] = tested on: HCV replicon 1A; test: Cell-based HCV replicon assay (Replicon Assay A), replicon 1A; details: replicon RNA by real time PCR, day 3
Procedure, shortened: as §1

[5] = read-out: EC50 replicon 1A Y93H, Replicon Assay A

Compound | EC50 [1, 5] [pM] | EC50 ([2]; Hepatitis C virus, 72 h) [pM] | EC50 [3] [pM] | EC50 [4] [pM] | EC50 ([4]; Hepatitis C virus, 72 h) [pM] | EC50 [2] [pM] | EC50 ([1]; Hepatitis C virus, 72 h, read-out: EC50 replicon 1A Y93H, Replicon Assay A) [pM]
COC(=O)N[C@H](C(=O)N1CCC[C@H]1c1ncc(-c2ccc3c(c2)OC(c2ccc4c(c2)OCCC4)n2c-3cc3cc(-c4cnc([C@@H]5C[C@H]6C[C@H]6N5C(=O)[C@@H](NC(=O)OC)C(C)C)[nH]4)ccc32)[nH]1)C(C)C (single isomer, unassigned) [Compound 50] | 60 | 1.4 | 36 | 1.4 |  |  | 
COC(=O)N[C@H](C(=O)N1CCC[C@H]1c1ncc(-c2ccc3c(c2)OC(c2ccc4c(c2)CCCO4)n2c-3cc3cc(-c4cnc([C@@H]5C[C@H]6C[C@H]6N5C(=O)[C@@H](NC(=O)OC)C(C)C)[nH]4)ccc32)[nH]1)C(C)C (single isomer, unassigned) [Compound 51] | 2130 | 2.5 | 4770 |  | 1.9 |  | 
COC(=O)N[C@H](C(=O)N1CCC[C@H]1c1ncc(-c2ccc3c(c2)OC(c2ccc4c(c2)CCCO4)n2c-3cc3cc(-c4cnc([C@@H]5C[C@H]6C[C@H]6N5C(=O)[C@@H](NC(=O)OC)C(C)C)[nH]4)ccc32)[nH]1)C(C)C (single isomer, unassigned) [Compound 52] | 454 |  | 1670 | 2.2 |  | 3.1 | 
CCN(CC)[C@@H](C(=O)N1[C@@H]2C[C@@H]2C[C@H]1c1ncc(-c2ccc3c(c2)cc2n3C(c3ccc4c(c3)OCCC4)Oc3cc(-c4cnc([C@@H]5CCCN5C(=O)[C@@H](NC(=O)OC)C5CCOCC5)[nH]4)cc(F)c3-2)[nH]1)c1ccccc1 (single isomer, unassigned) [Compound 54] |  | 2.4 | 11 |  | 4.9 |  | 8
COC(=O)NC(C(=O)N1CCC[C@H]1c1ncc(-c2ccc3c(c2)cc2n3C(c3ccc4c(c3)OC(C)CC4)Oc3cc(-c4cnc([C@@H]5CCCN5C(=O)[C@@H](NC(=O)OC)C(C)C)[nH]4)cc(F)c3-2)[nH]1)C1C[C@@H](C)O[C@@H](C)C1 (single isomer, unassigned) [Compound 59] | 15 | 2.7 | 17 | 3.2 |  |  | 
COC(=O)NC(C(=O)N1CCC[C@H]1c1ncc(-c2ccc3c(c2)cc2n3C(c3ccc4c(c3)OC(C)CC4)Oc3cc(-c4cnc([C@@H]5CCCN5C(=O)[C@@H](NC(=O)OC)C(C)C)[nH]4)cc(F)c3-2)[nH]1)C1C[C@@H](C)O[C@@H](C)C1 (single isomer, unassigned) [Compound 60] | 20 |  | 25 | 3 |  | 3.1 | 
COC(=O)NC(C(=O)N1CCC[C@H]1c1ncc(-c2ccc3c(c2)cc2n3C(c3ccc4c(c3)OC(C)CC4)Oc3cc(-c4cnc([C@@H]5CCCN5C(=O)[C@@H](NC(=O)OC)C(C)C)[nH]4)cc(F)c3-2)[nH]1)C1CCOC(C)(C)C1 (single isomer, unassigned) [Compound 63] | 32 | 2 | 16 | 2.6 |  |  | 
COC(=O)NC(C(=O)N1CCC[C@H]1c1ncc(-c2ccc3c(c2)cc2n3C(c3ccc4c(c3)OC(C)CC4)Oc3cc(-c4cnc([C@@H]5CCCN5C(=O)[C@@H](NC(=O)OC)C(C)C)[nH]4)cc(F)c3-2)[nH]1)C1CCOC(C)(C)C1 (single isomer, unassigned) [Compound 64] | 60 |  | 26 | 2.7 |  | 4 | 
COC(=O)NC(C(=O)N1[C@@H]2C[C@@H]2C[C@H]1c1ncc(-c2ccc3c(c2)cc2n3C(c3ccc4c(c3)CCCO4)Oc3cc(-c4cnc([C@@H]5CCCN5C(=O)[C@@H](NC(=O)OC)C(C)C)[nH]4)cc(F)c3-2)[nH]1)C1C[C@@H](C)O[C@@H](C)C1 (single isomer, unassigned) [Compound 65] | 43 | 1.8 | 935 |  | 2.9 |  | 
COC(=O)NC(C(=O)N1[C@@H]2C[C@@H]2C[C@H]1c1ncc(-c2ccc3c(c2)cc2n3C(c3ccc4c(c3)OCCC4)Oc3cc(-c4cnc([C@@H]5CCCN5C(=O)[C@@H](NC(=O)OC)C(C)C)[nH]4)cc(F)c3-2)[nH]1)C1C[C@@H](C)O[C@@H](C)C1 (single isomer, unassigned) [Compound 68] | 5 | 2.3 | 16 | 1.8 |  |  | 
